# Assay results from patent US20200164005A1, “PHARMACEUTICAL COMPOSITIONS OF A BILE ACID DERIVATIVE AND MICROBIOME AND USES THEREOF” (Intercept Pharmaceuticals, Inc., priority 2017, published 2020).
# Legend:
# [1] = test system: Lactococcus lactis, Streptococcus thermophilus, and Lactobacillus casei/paracasei; assay: Minimal inhibitory concentrations (MIC) of bile acids and OCA, aerobic and anaerobic; assay type: cell-based
# Description: FIGS. 58A-58B: Minimal inhibitory concentrations (MICs) of selected Gram-positive bacterial species in response treatment with two endogenous bile acids and OCA. […] N=3 per measurement. […] N=3 per measurement.
# a (Begley et al., FEMS Microbiol Rev. 29, 625-651 (2005)), and conducted genomic analysis is consistent with the notion that specific Gram-positive taxa become proportionally more abundant during OCA administration due to enhanced proliferation. FXR-dependent inhibition of endogenous bile acid synthesis by OCA may reduce the growth inhibitory effects on Gram-positive bacterial species that are normally sensitive to bile acids. To determine if the three bacterial species with the greatest representation of pathways associated with OCA (FIG. 57A) are sensitive to bile acids, the species-specific minimal inhibitory concentrations (MIC) of the two most predominant bile acids in the human small intestine, glycochenodeoxycholic acid (GCDCA) and glycocholic acid (GCA) were determined (FIG. 58A). Since the environment of the small intestinal lumen may transition from an aerobic to anaerobic state along its length (He et al., Proceedings of the National Academy of Sciences of the United States of America, 96, 4586-4591 (1999)), MICs were determined under both aerobic and anaerobic conditions. […] Consistent with this notion, it has been shown that bile salt hydrolases (BSH), enzymes that are unique to bacteria resident in the mammalian gut where they can enhance bile acid tolerance (Begley et al., FEMS Microbiol Rev. 29, 625-651 (2005)), are missing from the genome of S. thermophilus, which is induced by OCA. It can be supported by showing that these species are sensitive to growth inhibition in vitro when exposed to physiologically-relevant concentrations of conjugated bile acids found in the small intestine. […] Since OCA is a bile acid analogue possibly capable of inhibiting bacterial growth, the MICs of OCA for the same bacterial species were determined (FIG. 58B). […] These findings support the notion that OCA treatment leads to the increased growth of bile acid sensitive bacterial taxa by suppressing endogenous bile acid synthesis.
# [2] = 10 mg/day dose; cited from earlier work
compound,measurement,setting,value
"CC[C@H]1[C@@H](O)[C@@H]2[C@H](CC[C@]3(C)[C@@H]([C@H](C)CCC(=O)O)CC[C@@H]23)[C@@]2(C)CC[C@@H](O)C[C@@H]12 [OCA, 3α,7α-dihydroxy-6α-ethyl-5β-cholan-24-oic acid]",inhibition of growth of the three bacterial species (MIC determination),[1],able to inhibit growth of all three bacterial species
same,inhibition of growth at OCA concentrations calculated to be reached in the human small intestine,[1]; ˜40 mM at a 10 mg/day dose,minimal to no inhibition of growth
same,OCA concentration calculated to be reached in the human small intestine,[2],~40 µM
